Bounds are passed on as bounds.

The test deals with ROCK1 (Homo sapiens (Human), UniProt Q13464). Kind of test: Z-lyte FRET assay to measure kinase inhibition, ROCK1. Conditions: for inhibition at 50 µM: read-out: ROCK1 % inhibition @ 50 μM, 50 μM compound; for inhibition at 100 µM: read-out: ROCK1 % inhibition @ 100 μM, 100 μM compound; for IC50: read-out: ROCK1 IC50. It counts as biochemical.
Sequence of ROCK1 (Q13464 whole entry): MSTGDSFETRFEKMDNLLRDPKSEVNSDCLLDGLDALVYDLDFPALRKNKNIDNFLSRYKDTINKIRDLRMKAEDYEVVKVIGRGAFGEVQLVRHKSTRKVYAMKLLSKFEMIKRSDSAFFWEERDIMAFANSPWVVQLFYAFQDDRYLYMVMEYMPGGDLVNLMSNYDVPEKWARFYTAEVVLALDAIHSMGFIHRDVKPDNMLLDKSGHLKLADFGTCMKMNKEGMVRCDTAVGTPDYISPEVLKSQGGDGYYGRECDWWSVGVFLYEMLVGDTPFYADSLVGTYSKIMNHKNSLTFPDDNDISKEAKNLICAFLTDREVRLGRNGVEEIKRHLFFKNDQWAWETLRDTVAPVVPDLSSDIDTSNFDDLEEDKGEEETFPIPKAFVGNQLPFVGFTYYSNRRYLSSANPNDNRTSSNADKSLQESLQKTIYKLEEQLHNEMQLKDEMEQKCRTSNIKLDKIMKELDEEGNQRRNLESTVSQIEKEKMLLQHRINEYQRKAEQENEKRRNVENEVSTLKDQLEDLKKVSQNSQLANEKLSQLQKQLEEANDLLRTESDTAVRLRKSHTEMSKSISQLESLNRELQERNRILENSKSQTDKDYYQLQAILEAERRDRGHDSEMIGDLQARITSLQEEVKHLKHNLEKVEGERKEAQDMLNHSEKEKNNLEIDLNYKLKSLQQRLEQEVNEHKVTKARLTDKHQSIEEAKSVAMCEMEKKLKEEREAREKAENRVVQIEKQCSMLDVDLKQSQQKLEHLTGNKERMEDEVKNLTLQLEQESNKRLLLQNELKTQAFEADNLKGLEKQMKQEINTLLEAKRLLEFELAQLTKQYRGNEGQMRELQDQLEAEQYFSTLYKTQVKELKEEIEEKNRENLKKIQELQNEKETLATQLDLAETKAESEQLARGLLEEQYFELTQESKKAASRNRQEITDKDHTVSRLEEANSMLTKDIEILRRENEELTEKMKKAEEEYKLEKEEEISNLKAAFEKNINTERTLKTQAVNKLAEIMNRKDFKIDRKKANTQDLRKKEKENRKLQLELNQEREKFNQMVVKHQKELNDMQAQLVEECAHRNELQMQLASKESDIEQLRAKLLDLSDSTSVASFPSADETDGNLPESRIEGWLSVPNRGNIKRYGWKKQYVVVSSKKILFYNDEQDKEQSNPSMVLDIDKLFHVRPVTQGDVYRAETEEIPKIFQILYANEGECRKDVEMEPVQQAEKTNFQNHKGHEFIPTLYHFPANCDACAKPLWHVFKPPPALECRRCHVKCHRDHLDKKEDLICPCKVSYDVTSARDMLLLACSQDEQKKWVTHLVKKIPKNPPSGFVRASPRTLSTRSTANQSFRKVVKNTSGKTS

On to `c1ccc(COc2cccc3c2CCN3c2ncnc3[nH]ccc23)cc1`, for which the inhibition at 50 µM was found to be 33 ± 4%. As for `Nc1nccc(-n2ccc3cc(NC(=O)c4ccccc4)ccc32)n1`, the inhibition at 50 µM came to 8 ± 3%.

For `Nc1nccc(Nc2ccc(S(=O)(=O)NCc3ccccc3)cc2)n1`, the inhibition at 50 µM worked out at 30 ± 1%.

`CCOc1ccc(Nc2ccnc(N)n2)cc1`: the inhibition at 50 µM was determined as 31 ± 4%. For `COc1cccc(CNC(=O)c2cccc(Nc3ccnc(N)n3)c2)c1`, the inhibition at 100 µM was determined as 97% and the IC50 was 7.3 ± 1.29 µM. Consider `Nc1nccc(-n2ccc3cc(OCCc4ccccc4)ccc32)n1`, for which the inhibition at 50 µM turned out to be 21 ± 14%. On the same count and under the same terms, in the case of `Nc1nccc(Nc2ccc(S(=O)(=O)NC(=O)c3ccccc3)cc2)n1` it was 2.1 ± 1.9%; in that of `Nc1nccc(Nc2ccc(S(=O)(=O)N3CCN(c4cccc(C(F)(F)F)c4)CC3)cc2)n1`, -0.3 ± 0.7%. Consider `Nc1nccc(Nc2ccc3[nH]ccc3c2)n1`, for which the inhibition at 50 µM turned out to be 37 ± 1%. As to `CC[C@@H](NC(=O)c1cccc2c1ccn2-c1ccnc(N)n1)c1ccccc1`, the inhibition at 100 µM is 122% and the IC50 was 1.77 ± 0.24 µM.

Regarding `Nc1nccc(N2c3ccccc3CC2c2ccccc2)n1` (centres unmarked), the inhibition at 50 µM stood at 18 ± 1%. `CC(=O)N1CCc2ccc(Nc3ccnc(N)n3)cc21`: the inhibition at 50 µM stood at 10 ± 12%. Regarding `CC(=O)Nc1cccc(CNC(=O)c2cccc3c2ccn3-c2ccnc(N)n2)c1`, the inhibition at 100 µM came to 117% and the IC50 was found to be 1.39 ± 0.26 µM.

Consider `Nc1nccc(-n2ccc3ccc(OCc4ccccc4)cc32)n1`, for which the inhibition at 50 µM is -5 ± 2%.

With `Nc1nccc(Nc2ccccc2OCc2ccccc2)n1`, the inhibition at 50 µM was determined as 22 ± 4%. On to `COc1cccc(CNS(=O)(=O)c2cccc(Nc3ccnc(N)n3)c2)c1`, for which the inhibition at 100 µM came to 70% and the IC50 came to 33.4 ± 8.52 µM. As to `COc1cc(NC(C)=O)ccc1Nc1ccnc(N)n1`, the inhibition at 50 µM is 2 ± 1%.

Regarding `Nc1nccc(Nc2ccc(S(=O)(=O)Nc3nccs3)cc2)n1`, the inhibition at 50 µM turned out to be 21 ± 10%. Regarding `CC(=O)Nc1cccc(Nc2ccnc(N)n2)c1`, the inhibition at 50 µM is 42 ± 6%. Take `COc1cccc([C@@H](C)NC(=O)c2cccc3c2ccn3-c2ccnc(N)n2)c1`: the inhibition at 100 µM worked out at 92% and the IC50 came to 0.213 ± 0.025 µM. With `Nc1nccc(Nc2cc(S(N)(=O)=O)ccc2O)n1`, the inhibition at 50 µM was 36 ± 5%.

For the compound `Nc1nc(Nc2ccc(S(N)(=O)=O)cc2)c2[nH]cnc2n1`, the inhibition at 50 µM was found to be 9 ± 2%. Take `Nc1nccc(Nc2ccc(S(=O)(=O)Nc3ccnn3-c3ccccc3)cc2)n1`: the inhibition at 50 µM amounted to 1.8 ± 0.8%. In the case of `Nc1nccc(Nc2cccc(Cl)c2)n1`, the inhibition at 100 µM came out at 89% and the IC50 is 5.71 ± 1.44 µM. On to `COc1cccc(CNC(=O)c2cccc3c2ccn3-c2cc(N)nc(N)n2)c1`, for which the inhibition at 50 µM is 1.26 ± 0.79%. For `Nc1nccc(N2CCc3ccccc3C2)n1`, the inhibition at 50 µM was 6 ± 1%.

Turning to `CS(=O)(=O)c1ccc(Nc2ccnc(N)n2)cc1`, the inhibition at 50 µM was 38 ± 1%. As for `Nc1nccc(Nc2ccccc2Cl)n1`, the inhibition at 100 µM was 39%.

As for `Nc1nccc(-n2ccc3c(C(=O)NCc4ccccc4-c4ccccc4)cccc32)n1`, the inhibition at 100 µM is 7%.

`Nc1nccc(Nc2ccc(S(=O)(=O)Nc3ccccn3)cc2)n1`: the inhibition at 50 µM came to 2.8 ± 2.3%. Turning to `Nc1nccc(Nc2ccc(S(=O)(=O)Nc3ccccc3)cc2)n1`, the inhibition at 50 µM came out at 46 ± 4% and the IC50 is more than 100 µM. For `Nc1nccc(-n2ccc3c(C(=O)NCc4ccc(Cl)cc4)cccc32)n1`, the inhibition at 50 µM amounted to 31 ± 10%. As for `Nc1nccc(Oc2ccc(S(N)(=O)=O)cc2)n1`, the inhibition at 50 µM is -0.3 ± 1%. On to `Nc1nccc(-n2ccc3c(C(=O)NCc4cccc(N5CCCC5=O)c4)cccc32)n1`, for which the inhibition at 100 µM was 99% and the IC50 amounted to 8.31 ± 7.39 µM.

As to `Nc1nccc(N2c3ccccc3CC2C(=O)O)n1` (centres unmarked), the inhibition at 50 µM was determined as 6 ± 0.4%.

On to `Nc1nccc(-n2ccc3cc(C(=O)Nc4ccccc4)ccc32)n1`, for which the inhibition at 50 µM was found to be 17 ± 2%.

Values taken from patent US9616064B2, “Rho kinase inhibitors and methods of use” (H. LEE MOFFITT CANCER CENTER AND RESEARCH INSTITUTE, INC., priority 2011, dated 2017).
